In patent publication US8796470B2 (AbbVie Inc., priority 2010, dated 2014):

Target: T1, human Cav2.2 (Homo sapiens, UniProt Q00975)
T1 construct: IMR32 cells endogenously expressing human Cav2.2; endogenous in cells; host or cells: IMR32 cells (human neuroblastoma)
Test: Assessment of calcium channel activity using FLIPR (Ca2+ influx in IMR32 cells)
Format: cell-based
Conditions: IMR32 cells endogenously expressing human Cav2.2, Calcium 4 dye, 60 minute pre-incubation, 2 μM nifedipine, depolarized with 80 mM KCl, 5 mM CaCl2
Description: (i) In Vitro Methods—Assessment of Calcium Channel Activity Using FLIPR:
IMR32 cells endogenously expressing human Cav2.2 were assayed for Ca^2+ influx using a no-wash calcium indicator dye (Calcium 4 dye: Molecular Probes) and FLIPR technology (Lubin, M. L.; Reitz, T. L.; Todd, M. J.; Flores, C. M.; Qin, N.; Xin, H. Assay and Drug Development Technologies 2006, 4(6), 689-694.). The IMR32 cells were maintained in MEM media containing 10% (v/v) FBS, 1% (v/v) antibiotic/antimitotic, 1% (v/v) sodium pyruvate and 1% (v/v) MEM NEAA. Following dissociation in 0.05% (v/v) trypsin/EDTA, cells were seeded into black 1×96-well plates (Corning Cellbind) at a density of 1−1.2×10^5 cells/well and incubated in the maintenance media above for 48 hours at 37° C. Immediately prior to performing the assay the media was removed and cells were loaded for 1.5 hours with 1×Calcium 4 dye prepared in HBSS (137 mM NaCl, 5.4 mM KCl, 0.25 mM Na2HPO4, 0.44 mM KH2PO4, 1.3 mM CaCl2, 1 mM MgSO4, 4.2 mM NaHCO3) containing HEPES pH 7.4 at room temperature. After dye loading and a subsequent 60 minute pre-incubation with compounds (full log dilutions from 10 μM to 0.1 nM) in the presence of 1.3 mM CaCl2 and 2 μM nifedipine to block endogenous L-type channels, the external Ca^2+ concentration was increased to 5 mM CaCl2 and the cells concomitantly depolarized with 80 mM KCl to assay channel activity. To determine the IC50 values, the percent inhibition of the compound at each concentration was determined relative to the activity in the absence of inhibitor, and data was fitted using non-linear regression sigmoidal dose response curve analysis with GraphPad Prism®.

T1 sequence (Q00975 whole entry): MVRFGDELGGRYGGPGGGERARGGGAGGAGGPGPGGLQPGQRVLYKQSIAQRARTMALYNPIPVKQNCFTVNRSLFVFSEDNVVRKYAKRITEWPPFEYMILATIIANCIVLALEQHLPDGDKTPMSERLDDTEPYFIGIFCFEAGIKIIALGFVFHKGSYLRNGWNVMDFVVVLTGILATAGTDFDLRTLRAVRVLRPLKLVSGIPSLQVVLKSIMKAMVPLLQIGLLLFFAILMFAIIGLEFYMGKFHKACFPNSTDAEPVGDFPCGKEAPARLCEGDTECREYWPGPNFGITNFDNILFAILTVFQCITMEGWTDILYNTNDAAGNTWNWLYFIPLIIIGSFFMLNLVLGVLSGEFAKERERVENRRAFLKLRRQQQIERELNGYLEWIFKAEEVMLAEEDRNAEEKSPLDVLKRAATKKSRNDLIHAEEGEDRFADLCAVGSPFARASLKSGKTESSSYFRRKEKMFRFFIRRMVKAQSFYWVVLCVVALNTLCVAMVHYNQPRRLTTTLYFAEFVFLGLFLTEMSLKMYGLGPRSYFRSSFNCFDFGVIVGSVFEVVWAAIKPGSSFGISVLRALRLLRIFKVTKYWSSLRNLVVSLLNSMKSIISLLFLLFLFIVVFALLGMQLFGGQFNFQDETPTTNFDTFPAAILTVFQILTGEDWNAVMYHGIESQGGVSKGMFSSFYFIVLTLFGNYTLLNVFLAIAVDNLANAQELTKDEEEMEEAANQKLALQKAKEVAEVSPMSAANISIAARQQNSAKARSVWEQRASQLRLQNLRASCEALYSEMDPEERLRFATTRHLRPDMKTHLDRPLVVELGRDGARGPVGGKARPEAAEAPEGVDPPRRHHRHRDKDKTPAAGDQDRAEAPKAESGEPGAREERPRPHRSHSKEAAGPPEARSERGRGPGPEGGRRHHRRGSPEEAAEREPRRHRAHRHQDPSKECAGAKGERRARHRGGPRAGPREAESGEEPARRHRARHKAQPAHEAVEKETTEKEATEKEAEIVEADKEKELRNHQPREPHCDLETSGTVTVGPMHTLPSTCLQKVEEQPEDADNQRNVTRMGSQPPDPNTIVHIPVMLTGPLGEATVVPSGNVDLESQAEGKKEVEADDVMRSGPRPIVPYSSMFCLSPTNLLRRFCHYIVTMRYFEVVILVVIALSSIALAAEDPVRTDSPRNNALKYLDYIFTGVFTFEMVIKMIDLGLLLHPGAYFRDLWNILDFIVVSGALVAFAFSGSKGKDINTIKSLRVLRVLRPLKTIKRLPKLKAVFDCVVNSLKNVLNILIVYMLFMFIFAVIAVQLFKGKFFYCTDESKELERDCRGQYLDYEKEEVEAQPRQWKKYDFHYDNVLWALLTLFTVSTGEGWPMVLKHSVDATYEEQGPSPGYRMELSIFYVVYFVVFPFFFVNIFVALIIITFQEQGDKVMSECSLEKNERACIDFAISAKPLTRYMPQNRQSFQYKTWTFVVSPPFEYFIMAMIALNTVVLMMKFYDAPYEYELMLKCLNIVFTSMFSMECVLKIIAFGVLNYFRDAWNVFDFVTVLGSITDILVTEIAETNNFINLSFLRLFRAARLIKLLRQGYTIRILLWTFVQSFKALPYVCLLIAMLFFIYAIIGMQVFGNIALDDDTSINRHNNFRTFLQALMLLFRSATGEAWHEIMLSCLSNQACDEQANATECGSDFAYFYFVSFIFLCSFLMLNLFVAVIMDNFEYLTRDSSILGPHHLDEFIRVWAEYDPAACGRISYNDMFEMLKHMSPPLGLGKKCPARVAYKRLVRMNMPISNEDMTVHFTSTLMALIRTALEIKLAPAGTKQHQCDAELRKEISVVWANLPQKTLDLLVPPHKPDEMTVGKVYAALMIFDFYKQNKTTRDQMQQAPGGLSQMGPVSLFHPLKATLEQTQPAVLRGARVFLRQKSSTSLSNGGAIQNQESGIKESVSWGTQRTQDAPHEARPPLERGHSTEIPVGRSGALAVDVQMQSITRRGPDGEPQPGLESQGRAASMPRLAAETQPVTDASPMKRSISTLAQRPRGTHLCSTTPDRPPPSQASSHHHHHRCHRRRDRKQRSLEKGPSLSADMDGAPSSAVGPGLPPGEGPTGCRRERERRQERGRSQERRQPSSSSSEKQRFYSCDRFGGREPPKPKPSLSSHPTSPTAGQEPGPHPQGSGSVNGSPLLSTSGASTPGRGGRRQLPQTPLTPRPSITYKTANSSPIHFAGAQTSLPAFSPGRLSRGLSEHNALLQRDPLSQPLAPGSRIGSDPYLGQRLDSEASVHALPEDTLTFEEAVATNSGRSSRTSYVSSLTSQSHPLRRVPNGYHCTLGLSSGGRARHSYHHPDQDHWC
T1 sequence (P54289 25-956 partner limits assumed): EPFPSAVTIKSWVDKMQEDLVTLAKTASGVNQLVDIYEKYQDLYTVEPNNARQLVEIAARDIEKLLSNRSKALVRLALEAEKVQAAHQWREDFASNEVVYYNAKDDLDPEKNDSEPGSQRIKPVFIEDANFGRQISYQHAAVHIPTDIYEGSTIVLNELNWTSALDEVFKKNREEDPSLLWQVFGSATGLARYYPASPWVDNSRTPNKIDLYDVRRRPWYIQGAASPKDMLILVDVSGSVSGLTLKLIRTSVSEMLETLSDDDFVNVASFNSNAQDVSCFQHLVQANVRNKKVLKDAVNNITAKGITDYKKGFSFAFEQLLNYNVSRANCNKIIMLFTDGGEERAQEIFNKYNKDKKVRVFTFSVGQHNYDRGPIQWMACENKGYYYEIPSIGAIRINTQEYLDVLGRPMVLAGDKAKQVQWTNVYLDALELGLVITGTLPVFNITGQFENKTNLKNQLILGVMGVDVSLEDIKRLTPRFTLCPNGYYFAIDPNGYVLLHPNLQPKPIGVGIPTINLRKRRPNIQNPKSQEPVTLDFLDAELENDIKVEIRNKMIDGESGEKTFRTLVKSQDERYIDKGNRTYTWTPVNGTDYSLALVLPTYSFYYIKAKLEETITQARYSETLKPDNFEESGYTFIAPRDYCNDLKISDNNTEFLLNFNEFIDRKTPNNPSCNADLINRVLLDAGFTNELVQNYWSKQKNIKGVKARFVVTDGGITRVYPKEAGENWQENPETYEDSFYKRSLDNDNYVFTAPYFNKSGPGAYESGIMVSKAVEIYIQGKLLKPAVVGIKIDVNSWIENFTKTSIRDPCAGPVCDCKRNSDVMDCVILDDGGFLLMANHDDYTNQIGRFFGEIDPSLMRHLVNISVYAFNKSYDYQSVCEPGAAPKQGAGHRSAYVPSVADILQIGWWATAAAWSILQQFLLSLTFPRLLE
T1 sequence (P54289 957-1103 partner limits assumed): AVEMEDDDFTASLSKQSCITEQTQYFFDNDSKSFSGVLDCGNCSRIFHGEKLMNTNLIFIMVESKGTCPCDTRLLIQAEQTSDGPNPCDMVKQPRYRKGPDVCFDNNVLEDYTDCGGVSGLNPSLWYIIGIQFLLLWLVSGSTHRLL
T1 sequence (P54284 whole entry partner): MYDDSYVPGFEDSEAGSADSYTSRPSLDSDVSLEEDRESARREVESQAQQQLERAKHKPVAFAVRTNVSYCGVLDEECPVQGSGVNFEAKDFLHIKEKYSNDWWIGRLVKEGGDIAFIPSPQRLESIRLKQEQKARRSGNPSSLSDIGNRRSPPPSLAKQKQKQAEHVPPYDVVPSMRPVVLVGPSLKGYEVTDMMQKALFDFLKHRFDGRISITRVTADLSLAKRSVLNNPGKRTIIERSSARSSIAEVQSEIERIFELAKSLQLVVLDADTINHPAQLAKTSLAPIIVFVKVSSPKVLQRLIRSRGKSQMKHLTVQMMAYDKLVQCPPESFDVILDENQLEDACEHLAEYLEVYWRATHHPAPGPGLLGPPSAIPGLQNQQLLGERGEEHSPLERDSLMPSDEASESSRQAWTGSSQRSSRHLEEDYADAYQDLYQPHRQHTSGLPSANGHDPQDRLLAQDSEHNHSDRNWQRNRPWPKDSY

IC50: 1150 nM
SMILES: C[C@]1(NC(=O)CCC(F)(F)F)CC[C@@H]2CN(c3cccc(C(F)(F)F)n3)C[C@@H]21 [Example 72, 4,4,4-trifluoro-N-{(3aR,4S,6aS)-4-methyl-2-[6-(trifluoromethyl)pyridin-2-yl]octahydrocyclopenta[c]pyrrol-4-yl}butanamide]
